Tests used:
[1] = system: Spectrin Breakdown in Human Leukemic Molt-4 cells; test: Cell-based calpain assay: spectrin breakdown in Molt-4 cells treated with calcium ionophore A23187; conditions: 1 hour preincubation, 15 μM A23187, 90 minutes, read-out: IC50 for inhibition of spectrin breakdown (145 kD fragment formation)
Protocol: Calpain inhibitor was added to the wells if desired and preincubated for 1 hour. […] The cells were then lysed with 2% (w/v) SDS, 5 mM EGTA, 5 mM EDTA, 150 mM NaCl, 0.5 mM PMSF, 10 μg/mL AEBSF, 5 μg/mL leupeptin, 10 μg/mL pepstatin, 10 μg/mL TLCK, 10 μg/mL TPCK, and 20 mM Tris-HCl (pH 7.4) at room temperature for 5 to 10 minutes. One hundred microliters of 100% (w/v) TCA was added and total protein precipitate was collected by microcentrifugation. The final pellets were neutralized with Tris base. Protein samples (50 μg) were run on SDS-PAGE with the Tris-glycine running buffer system and transferred onto a PVDF membrane. The blots were probed with an anti-spectrin (nonerythroid) antibody and a second antibody with alkaline phosphatase conjugate. The blots were developed with nitro blue tetrazolium and 5-bromo-4-chloro-3-indolyl-phosphate.

[2] = molecular target: T1, Trypsin (Bos taurus, UniProt P00760); test: Trypsin assay, casein substrate; assay type: biochemical, bovine; conditions: 0.5 mg/mL casein
T1 construct: purchased Sigma T8003; host or cells: bovine pancreas
T1 sequence (P00760 24-246): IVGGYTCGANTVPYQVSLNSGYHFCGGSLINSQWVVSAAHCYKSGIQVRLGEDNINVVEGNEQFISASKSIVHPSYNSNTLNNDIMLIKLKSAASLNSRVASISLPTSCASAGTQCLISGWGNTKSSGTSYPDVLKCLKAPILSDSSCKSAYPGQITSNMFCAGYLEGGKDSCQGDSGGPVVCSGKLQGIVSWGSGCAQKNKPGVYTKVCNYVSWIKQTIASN
Protocol: (§1) Selectivity of α-substituted Hydrazides: Calpain I and II were assayed as described in Example 1. One to 2 ng papain (papaya latex, Sigma, P3125), 1.25 μg trypsin (bovine pancreas, Sigma, T8003), 5 μg thermolysin (Bacillus thermoproteolyticus, Sigma, P1512) were assayed using 0.5 mg/mL casein as substrate in the microplate format (250 μL reaction volume), essentially a described by Buroker-Kilgore, M. and Wang K K W, Anal Biochem 1993;208: 387-392. Cathepsin B (0.002 unit, bovine spleen) was assayed with 50 mM MES (pH 5.5), 100 μM carbobenzoxy-Arg-Arg-4-methoxy-beta-naphthlamide (Cbz-Arg-Arg-MNA), inhibitor, and 2 mM DTT in 200 μL for 60 minutes at room temperature. Fifty-microliter aliquots were transferred to a fluorescence-compatible plate and then read with a Perkin-Elmer fluorometer LS-50B (excitation 340 nm and emission 425 nm). Calcineurin (bovine brain, Sigma) (5 μg, 0.8 unit) was assayed with 10 mM p-nitrophenyl phosphate in 1 mM DTT, 1 mM CaCl2, 1 mM MnCl2, […] calmodulin (CaM, if added), and 50 mM Tris-HCl (pH 7.4) at 25° C. for 60 minutes or more. Production of p-nitrophenol was monitored at 405 nm. Inhibition of these proteases are presented as IC50.

[3] = molecular target: T2, Human Calpain II (Homo sapiens, UniProt P17655); test: Calpain II activity, casein substrate, Coomassie microplate assay; assay type: biochemical; conditions: casein 0.5 mg/mL (Table I)
T2 sequence (P17655 1-700): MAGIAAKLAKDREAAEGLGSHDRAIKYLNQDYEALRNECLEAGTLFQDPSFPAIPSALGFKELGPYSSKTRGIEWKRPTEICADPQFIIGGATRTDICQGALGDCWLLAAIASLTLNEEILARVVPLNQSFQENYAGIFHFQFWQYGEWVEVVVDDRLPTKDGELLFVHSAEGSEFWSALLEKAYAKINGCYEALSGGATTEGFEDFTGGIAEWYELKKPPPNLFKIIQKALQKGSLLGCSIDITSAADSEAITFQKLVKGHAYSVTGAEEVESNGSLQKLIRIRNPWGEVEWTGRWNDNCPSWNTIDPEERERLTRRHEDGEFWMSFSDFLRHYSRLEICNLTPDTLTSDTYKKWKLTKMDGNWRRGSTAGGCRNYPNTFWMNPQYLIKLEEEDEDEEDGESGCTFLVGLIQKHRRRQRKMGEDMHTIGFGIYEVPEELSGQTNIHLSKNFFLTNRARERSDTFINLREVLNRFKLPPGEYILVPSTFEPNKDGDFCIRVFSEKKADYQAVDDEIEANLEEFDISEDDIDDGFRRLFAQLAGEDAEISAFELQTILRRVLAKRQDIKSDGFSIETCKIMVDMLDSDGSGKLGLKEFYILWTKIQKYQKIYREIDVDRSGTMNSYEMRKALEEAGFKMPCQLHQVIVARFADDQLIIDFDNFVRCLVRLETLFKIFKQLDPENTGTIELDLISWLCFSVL
T2 sequence (P04632 1-268 partner): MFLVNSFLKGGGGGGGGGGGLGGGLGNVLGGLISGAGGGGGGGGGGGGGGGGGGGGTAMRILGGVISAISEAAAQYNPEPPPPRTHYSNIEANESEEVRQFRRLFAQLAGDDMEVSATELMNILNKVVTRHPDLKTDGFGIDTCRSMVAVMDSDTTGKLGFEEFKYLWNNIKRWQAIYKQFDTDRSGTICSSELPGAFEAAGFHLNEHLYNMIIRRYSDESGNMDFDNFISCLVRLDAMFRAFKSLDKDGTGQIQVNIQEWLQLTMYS
Protocol: Assay of calpain activity: Calpain I was purified from human erythrocytes as described by Wang K K W, Roufogalis B D, and Villalobo A, Arch Biochem Biophys 1988;267: 317-327. Calpain activity was assayed in a 96-well microplate format (Buroker-Kilgore M and Wang K K W, Anal Bio Chem 1993;208: 387-392). In 250 μL of reaction mixture, substrate casein (0.5 mg/mL) was incubated with 0.01 unit (80-120 ng) calpain I, 20 mM dithiothreitol (DTT), 50 mM Tris-HCl (pH 7.4 at 25° C.) and 4 mM CaCl2 at 25° C. for 60 minutes. Two 100-μL aliquots were taken for Coomassie blue G250 binding analysis to quantify the remaining casein.
Compound concentrations that cause 50% inhibition (IC50) are as shown (Table I). The second rate of inactivation of calpain I for 2 compounds are also shown.
as §1

[4] = molecular target: T3, Cathepsin B (Bos taurus, UniProt P07688); test: Cathepsin B assay (Cbz-Arg-Arg-MNA substrate); assay type: biochemical, bovine; conditions: pH 5.5, 60 minutes, room temperature
T3 construct: Cathepsin B (0.002 unit, bovine spleen); from tissue; host or cells: bovine spleen
Protocol: as §1

With `O=C(CCl)NN=c1[nH]c2ccccc2n(-c2ccccc2)c1=O` [Example 5, 2-Chloro-acetic acid (3-oxo-4-phenyl-3,4-dihydro-1H-quinoxalin-2-ylidene)-hydrazide] as the compound, how does the IC50 [1] read?
The IC50 was 25 µM.

What about the IC50 [2] of the same compound?
The IC50 was > 200 µM.

What about the IC50 [3] of the same compound?
The IC50 was 0.59 µM.

And the IC50 [4]?
Its IC50 is > 200 µM.
